Experimental data as given in publication PMC7305291, “Cryo-EM snapshots of mycobacterial arabinosyltransferase complex EmbB2-AcpM2” (Protein & Cell, 2020).

How the values were obtained:
[1] = biological target: T1, EmbB2-AcpM2 complex (Msm EmbB) (Mycolicibacterium smegmatis, UniProt A0R614); test: cryo-EM structure of the complex, […] Å; mass spectrometry of co-purified lipid; assay type: binding; conditions: endogenous donor substrate, bound in one protomer of the asymmetric active state
T1 construct: gene MSMEG_6389; full-length EmbB, C-terminal 10xHis tag, pMV261 vector, homologous overexpression in M. smegmatis, detergent purified then amphipol exchanged; homodimer with endogenous co-purified AcpM on each protomer; with Meromycolate extension acyl carrier protein
T1 sequence (A0R614 1-1082): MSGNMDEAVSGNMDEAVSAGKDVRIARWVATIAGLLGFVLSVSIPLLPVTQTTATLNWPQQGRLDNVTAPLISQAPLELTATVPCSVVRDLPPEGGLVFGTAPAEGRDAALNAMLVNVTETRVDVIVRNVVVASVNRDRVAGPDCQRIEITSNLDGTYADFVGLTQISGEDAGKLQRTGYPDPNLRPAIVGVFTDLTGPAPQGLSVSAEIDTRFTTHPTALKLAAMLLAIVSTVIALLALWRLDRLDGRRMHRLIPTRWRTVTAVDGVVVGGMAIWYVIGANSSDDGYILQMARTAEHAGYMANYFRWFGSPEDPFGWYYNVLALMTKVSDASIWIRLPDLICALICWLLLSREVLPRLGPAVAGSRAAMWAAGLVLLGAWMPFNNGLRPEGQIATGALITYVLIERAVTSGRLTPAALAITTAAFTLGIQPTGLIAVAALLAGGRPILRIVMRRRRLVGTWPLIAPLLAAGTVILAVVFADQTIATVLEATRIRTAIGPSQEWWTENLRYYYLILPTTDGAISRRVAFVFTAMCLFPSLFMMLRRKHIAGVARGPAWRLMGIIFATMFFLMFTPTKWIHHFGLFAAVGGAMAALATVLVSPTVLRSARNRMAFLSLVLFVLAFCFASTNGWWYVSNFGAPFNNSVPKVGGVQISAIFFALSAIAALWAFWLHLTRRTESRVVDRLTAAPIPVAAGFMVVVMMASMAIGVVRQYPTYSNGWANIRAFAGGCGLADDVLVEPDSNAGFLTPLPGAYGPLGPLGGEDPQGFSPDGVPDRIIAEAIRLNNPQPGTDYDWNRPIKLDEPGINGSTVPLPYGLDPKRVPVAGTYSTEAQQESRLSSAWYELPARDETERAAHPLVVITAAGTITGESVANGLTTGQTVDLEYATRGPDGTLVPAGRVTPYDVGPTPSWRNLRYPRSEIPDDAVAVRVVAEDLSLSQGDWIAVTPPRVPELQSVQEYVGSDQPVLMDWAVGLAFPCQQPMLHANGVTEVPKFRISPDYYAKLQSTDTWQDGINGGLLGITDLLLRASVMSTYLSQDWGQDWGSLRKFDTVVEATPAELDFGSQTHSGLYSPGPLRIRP
T1 sequence (A0R0B3 1-99 partner): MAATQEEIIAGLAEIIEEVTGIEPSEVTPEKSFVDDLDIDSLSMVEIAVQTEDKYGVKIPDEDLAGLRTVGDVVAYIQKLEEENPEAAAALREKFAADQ

[2] = biological target: T1, EmbB2-AcpM2 complex (Msm EmbB); test: microscale thermophoresis (MST); assay type: binding
[3] = biological target: the molecule itself; test: cryo-EM structure; detergent purified, amphipol exchanged EmbB with co-purified endogenous AcpM; single-particle analysis; two 3D classes refined: symmetric resting state (3.6 A) and asymmetric DPA-bound active state (3.5 A)

In the case of `CC(C)=CCC/C(C)=C/CC/C(C)=C\CC/C(C)=C\CC/C(C)=C\CC/C(C)=C\CC/C(C)=C\CC/C(C)=C\CC/C(C)=C\CC/C(C)=C\COP(=O)(O)O[C@@H]1O[C@H](CO)[C@@H](O)[C@@H]1O` [decaprenyl-phosphate-arabinose], the “cryo-EM structure of the complex, 3.5 Å; mass spectrometry of co-purified lipid” value [1] is reported as “The whole of the DPA fits into this part of the map”.

Molecule `CC[C@@H](CO)NCCN[C@@H](CC)CO` [ethambutol] has a Kd [2] of 1.58 µM.

B1: Mycobacterium smegmatis arabinosyltransferase EmbB (MSMEG_6389) (enzyme, UniProt Q50395 1-1082, looked up)
chain: MSGNMDEAVSGNMDEAVSAGKDVRIARWVATIAGLLGFVLSVSIPLLPVTQTTATLNWPQQGRLDNVTAPLISQAPLELTATVPCSVVRDLPPEGGLVFGTAPAEGRDAALNAMLVNVTETRVDVIVRNVVVASVNRDRVAGPDCQRIEITSNLDGTYADFVGLTQISGEDAGKLQRTGYPDPNLRPAIVGVFTDLTGPAPQGLSVSAEIDTRFTTHPTALKLAAMLLAIVSTVIALLALWRLDRLDGRRMHRLIPTRWRTVTAVDGVVVGGMAIWYVIGANSSDDGYILQMARTAEHAGYMANYFRWFGSPEDPFGWYYNVLALMTKVSDASIWIRLPDLICALICWLLLSREVLPRLGPAVAGSRAAMWAAGLVLLGAWMPFNNGLRPEGQIATGALITYVLIERAVTSGRLTPAALAITTAAFTLGIQPTGLIAVAALLAGGRPILRIVIRRRRLDGTWPLIAPLLAAGTVILAVVFADQTIATVLEATRIRTAIGPSQEWWTEKLRYYYLILPTTDGAISRRVAFVFTAMCLFPSLFMMLRRKHIAGVARGPAWRLMGIIFATMFFLMFTPTKWTHHFGLFAAVGGAMAALATVLVSPTVLRSARNRMAFLSLVLFVLAFCFASTNGWWYVSNFGAPFNNSVPKVGGVQISAIFFALSAIAALWAFWLHLTRRTESRVVDRLTAAPIPVAAGFMVVVMMASMAIGVVRQYPTYSNGWANIRAFAGGCGLADDVLVEPDSNAGFLTPLPGAYGPLGPLGGEDPQGFSPDGVPDRIIAEAIRLNNPQPGTDYDWNRPIKLDEPGINGSTVPLPYGLDPKRVPVAGTYSTEAQQESRLSSAWYELPARDETERAAHPLVVITAAGTITGESVANGLTTGQTVDLEYATRGPDGTLVPAGRVTPYDVGPTPSWRNLRYPRSEIPDDAVAVRVVAEDLSLSQGDWIAVTPPRVPELQSVQEYVGSDQPVLMDWAVGLAFPCQQPMLHANGVTEVPKFRISPDYYAKLQSTDTWQDGINGGLLGITDLLLRASVMSTYLSQDWGQDWGSLRKFDTVVEATPAELDFGSQTHSGLYSPGPLRIRP
notes: arabinosyltransferase EmbB of Mycobacterium smegmatis, locus MSMEG_6389; 69.6% identical to Mtb EmbB (Rv_3795); Seen as a homodimer by cryo-EM, with one AcpM on each protomer (EmbB2-AcpM2); also called Msm EmbB; EmbB protomer
In the case of B1, the “stoichiometry N” value [3] is reported as 2.
